The subject of data set [1] is Influenza A virus. Description: Antiviral activity against Influenza A virus A/PR/8/34 infected in BALB/c mouse assessed as reduction in body weight loss at 5 to 30 mg/kg, po pre-infected with virus for 48 hrs followed by twice daily compound administration starting from day 2 and measured on day 5. It counts as functional, organism-based. Conditions: dose 5-30 mg/kg, time 72.0 hrs.

Data set [2] is described as follows: Prodrug conversion in BALB/c mouse infected with Influenza B virus B/Lee/40 assessed as (7aS,16R)-2,3-difluoro-10-hydroxy-8-methyl-16-phenyl-6,7,7a,8-tetrahydro-16H-benzo[b]pyrido[1',2':1,6][1,2,4]triazino[2,3-e][1,5]oxazocine-9,11-dione formation at 0.5 to 5 mg/kg, po pre-infected with virus for 24 hrs followed by twice daily compound administration from day 1 to 7 and measured on day 14 by LC-MS/MS analysis. It counts as ADME, organism-based. Conditions: in vivo, 336 h, dose 0.5-5 mg/kg, time 14 day.

A short description of data set [3]: Prodrug conversion in BALB/c mouse assessed as (7aS,16R)-2,3-difluoro-10-hydroxy-8-methyl-16-phenyl-6,7,7a,8-tetrahydro-16H-benzo[b]pyrido[1',2':1,6][1,2,4]triazino[2,3-e][1,5]oxazocine-9,11-dione Cmax at 10 mg/kg, po measured after 24 hrs by LC-MS/MS analysis. It counts as ADME, organism-based. Conditions: in vivo.
For data set [4], the system named is Influenza B virus. Description: Antiviral activity against Influenza B virus B/Lee/40 infected in BALB/c mouse assessed as reduction in body weight loss at 0.5 to 5 mg/kg, po pre-infected with virus for 24 hrs followed by twice daily compound administration from day 1 to 7 and measured on day 14. It counts as functional, organism-based. Particulars: dose 0.5-5 mg/kg, time 14.0 day.

Data set [5] in a line: Prodrug conversion in cynomolgus monkey assessed as (7aS,16R)-2,3-difluoro-10-hydroxy-8-methyl-16-phenyl-6,7,7a,8-tetrahydro-16H-benzo[b]pyrido[1',2':1,6][1,2,4]triazino[2,3-e][1,5]oxazocine-9,11-dione Cmax at 1 mg/kg, po measured after 24 hrs by LC-MS/MS analysis. It counts as ADME, organism-based, Macaca fascicularis. Particulars: in vivo.
Data set [6] can be described thus: Prodrug conversion in cynomolgus monkey assessed as (7aS,16R)-2,3-difluoro-10-hydroxy-8-methyl-16-phenyl-6,7,7a,8-tetrahydro-16H-benzo[b]pyrido[1',2':1,6][1,2,4]triazino[2,3-e][1,5]oxazocine-9,11-dione half-life at 1 mg/kg, po measured after 24 hrs by LC-MS/MS analysis. The data set is classed as ADME, organism-based, Macaca fascicularis. Particulars: in vivo.

The subject of data set [7] is Influenza B virus. In words: Antiviral activity against Influenza B virus B/Lee/40 infected in BALB/c mouse assessed as reduction in improvement in survival rate at 0.5 to 5 mg/kg, po pre-infected with virus for 24 hrs followed by twice daily compound administration from day 1 to 7 and measured on day 14. The data set is classed as functional, organism-based. Conditions: dose 0.5-5 mg/kg, time 14.0 day.

The nature of data set [8]: Prodrug conversion in BALB/c mouse assessed as (7aS,16R)-2,3-difluoro-10-hydroxy-8-methyl-16-phenyl-6,7,7a,8-tetrahydro-16H-benzo[b]pyrido[1',2':1,6][1,2,4]triazino[2,3-e][1,5]oxazocine-9,11-dione AUC (0 to last) at 10 mg/kg, po measured after 24 hrs by LC-MS/MS analysis. The data set is classed as ADME, organism-based. Conditions: in vivo.
Data set [9] can be described thus: Prodrug conversion in Beagle dog assessed as (7aS,16R)-2,3-difluoro-10-hydroxy-8-methyl-16-phenyl-6,7,7a,8-tetrahydro-16H-benzo[b]pyrido[1',2':1,6][1,2,4]triazino[2,3-e][1,5]oxazocine-9,11-dione Cmax at 1 mg/kg, po measured after 24 hrs by LC-MS/MS analysis. The data set is classed as ADME, organism-based, Canis lupus familiaris. Conditions: in vivo.
A short description of data set [10]: Prodrug conversion in BALB/c mouse infected with Influenza B virus B/Lee/40 assessed as (7aS,16R)-2,3-difluoro-10-hydroxy-8-methyl-16-phenyl-6,7,7a,8-tetrahydro-16H-benzo[b]pyrido[1',2':1,6][1,2,4]triazino[2,3-e][1,5]oxazocine-9,11-dione formation by measuring Ctau at 5 mg/kg, po pre-infected with virus for 24 hrs followed by twice daily compound administration from day 1 to 7 and measured on day 14 by LC-MS/MS analysis. It counts as ADME, organism-based. Particulars: in vivo, 336 h, time 14 day.

Data set [11] is described as follows: Prodrug conversion in Beagle dog assessed as (7aS,16R)-2,3-difluoro-10-hydroxy-8-methyl-16-phenyl-6,7,7a,8-tetrahydro-16H-benzo[b]pyrido[1',2':1,6][1,2,4]triazino[2,3-e][1,5]oxazocine-9,11-dione half-life at 1 mg/kg, po measured after 24 hrs by LC-MS/MS analysis. The data set is classed as ADME, organism-based, Canis lupus familiaris. Conditions: in vivo.
Data set [12] can be described thus: Prodrug conversion in Beagle dog assessed as (7aS,16R)-2,3-difluoro-10-hydroxy-8-methyl-16-phenyl-6,7,7a,8-tetrahydro-16H-benzo[b]pyrido[1',2':1,6][1,2,4]triazino[2,3-e][1,5]oxazocine-9,11-dione AUC (0 to last) at 1 mg/kg, po measured after 24 hrs by LC-MS/MS analysis. The data set is classed as ADME, organism-based, Canis lupus familiaris. Conditions: in vivo.

A short description of data set [13]: Prodrug conversion in BALB/c mouse assessed as (7aS,16R)-2,3-difluoro-10-hydroxy-8-methyl-16-phenyl-6,7,7a,8-tetrahydro-16H-benzo[b]pyrido[1',2':1,6][1,2,4]triazino[2,3-e][1,5]oxazocine-9,11-dione half-life at 10 mg/kg, po measured after 24 hrs by LC-MS/MS analysis. The data set is classed as ADME, organism-based. Particulars: in vivo.
In data set [14] the test system is Influenza A virus. In words: Antiviral activity against Influenza A virus A/PR/8/34 infected in BALB/c mouse assessed as reduction in viral load in lungs at 5 to 30 mg/kg, po pre-infected with virus for 48 hrs followed by twice daily compound administration starting from day 2 and measured 1 hrs after last dose on day 5 by crystal violet staining based analysis. The data set is classed as functional, organism-based. Particulars: dose 5-30 mg/kg, time 73.0 hrs.

Data set [15] can be described thus: Prodrug conversion in cynomolgus monkey assessed as (7aS,16R)-2,3-difluoro-10-hydroxy-8-methyl-16-phenyl-6,7,7a,8-tetrahydro-16H-benzo[b]pyrido[1',2':1,6][1,2,4]triazino[2,3-e][1,5]oxazocine-9,11-dione AUC (0 to last) at 1 mg/kg, po measured after 24 hrs by LC-MS/MS analysis. The data set is classed as ADME, organism-based, Macaca fascicularis. Particulars: in vivo.

The values below come from ChEMBL document CHEMBL5528039, “Discovery of a Macrocyclic Influenza Cap-Dependent Endonuclease Inhibitor” (J Med Chem, 2024).

SMILES strings stand for the structures. Activity calls are given as the source filed them. The rule behind the calls is not given here.

As for `COC(=O)OCOc1c2n(ccc1=O)N1[C@H](c3ccccc3)c3cc(F)c(F)cc3OCC[C@H]1N(C)C2=O`, the outcome in the data set with Influenza A virus [1], with Influenza B virus [4], with Influenza B virus [7] and in the data set on Influenza A virus [14] was Active. Moreover, the Drug metabolism result in data set [2] is “Metabolite_Detected”. The Cmax in data set [3] turned out to be 309 nM; in [5], 163 nM; in data set [9], 171 nM. Moreover, the t1/2 in [6] came to 3.6 h; in data set [11] it was 4.4 h; in data set [13], 1.3 h. For the same molecule, the values for the AUClast in [8], in [12] and in data set [15] were 0.93 µM·h, 0.724 µM·h and 0.785 µM·h, respectively. In data set [10], the Ctau is on record as over 16 nM.
